How the values were obtained:
[1] = Stability in simulated gastric fluid; type: in vitro ADME; settings: 37° C., pH 1.5, pepsin; for half-life at 2 μM: simulated gastric fluid with pepsin, read-out: half-life (t1/2) in simulated gastric fluid
Outline: (§1)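 First, each incubation is terminated using TFA in water (10% v/v). Next, samples run through a TFA/H2O-equilibrated column at 1 mL/min, with 206 nm monitoring. Finally, manually collected fractions go to electrospray MS.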

[2] = biological target: T1, human glucagon receptor (Homo sapiens, UniProt P47871); experiment: In vitro human glucagon antagonist activity (inhibition of cAMP production), CHO/human glucagon R cells; type: cell-based
T1 construct: The full-length cDNA was cloned in pcDNA3.1(Invitrogen); expressed in transfected cells
T1 sequence (P47871 26-477): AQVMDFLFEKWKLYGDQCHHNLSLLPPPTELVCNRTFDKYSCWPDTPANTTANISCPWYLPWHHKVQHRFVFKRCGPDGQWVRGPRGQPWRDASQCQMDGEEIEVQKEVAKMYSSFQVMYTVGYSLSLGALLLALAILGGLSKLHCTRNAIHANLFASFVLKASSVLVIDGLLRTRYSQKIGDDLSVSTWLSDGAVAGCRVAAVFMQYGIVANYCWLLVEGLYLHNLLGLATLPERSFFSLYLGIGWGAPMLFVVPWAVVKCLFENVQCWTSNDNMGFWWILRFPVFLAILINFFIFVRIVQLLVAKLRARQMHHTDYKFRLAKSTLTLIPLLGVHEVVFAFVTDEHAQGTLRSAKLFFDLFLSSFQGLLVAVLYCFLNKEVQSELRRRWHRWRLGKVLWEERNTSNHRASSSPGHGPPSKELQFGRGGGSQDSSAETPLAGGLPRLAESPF
Method: CHO cells were grown in Ham's F12 medium containing L-Glutamine (2 mM), HEPES (25 mM), NaHCO3 (1.1 g/L) and supplemented with newborn Calf Serum (NBCS; 10%), Penicillin (50 U/ml (v/v)) and Streptomycin (50 ug/ml (v/v)). Cells were split every 3 days 1:8.
The full-length cDNA was cloned in pcDNA3.1(Invitrogen). […] Clones expressing the receptor were generated by G418 (800 μg/ml active, Sigma) selection. The stable clones were thereafter maintained at 500 ug/ml (G418). The selected clone was used between passages 9-25 for cAMP assays.
The trypsin was inactivated using Ham's F12 medium containing 10% NBCS and the cells were suspended in 2 ml of complete medium. […] The medium was aspirated off from the 12 well plate and the cells were washed once using Ham's F12 (plain). […] After the incubation; the medium was removed and cells were washed once with plain Ham's F12. Subsequently, the cells were lysed by adding 500 ul of ice cold 0.1 N HCl to each well and shaking for 30 minutes at 200 rpm. The cells were then scrapped, the lysate was collected in micro centrifuge tubes and centrifuged at 12000 rpm for 10 min to remove the debris. 300 ul of supernatant from each micro-centrifuge tube was then removed into a glass tube and dried under N2 for 30 min, for cAMP estimation. The total cAMP was estimated from the sample according to the manufacturer's protocol using Cyclic AMP immunoassay kit (R&D systems, Minneapolis: MN). The remaining supernatant is used to determine the protein concentration using micro BCA (Sigma). Data is calculated as percent of control (Vehicle: water) and expressed as Mean+SD.

[3] = biological target: DPP IV (Homo sapiens, UniProt P27487); experiment: Stability against DPP IV enzyme; type: in vitro ADME; settings: for % degradation in 24 h when incubated with DPP-IV enzyme: 2 μM, 37° C.
Sequence of DPP IV (P27487 whole entry, species assumed): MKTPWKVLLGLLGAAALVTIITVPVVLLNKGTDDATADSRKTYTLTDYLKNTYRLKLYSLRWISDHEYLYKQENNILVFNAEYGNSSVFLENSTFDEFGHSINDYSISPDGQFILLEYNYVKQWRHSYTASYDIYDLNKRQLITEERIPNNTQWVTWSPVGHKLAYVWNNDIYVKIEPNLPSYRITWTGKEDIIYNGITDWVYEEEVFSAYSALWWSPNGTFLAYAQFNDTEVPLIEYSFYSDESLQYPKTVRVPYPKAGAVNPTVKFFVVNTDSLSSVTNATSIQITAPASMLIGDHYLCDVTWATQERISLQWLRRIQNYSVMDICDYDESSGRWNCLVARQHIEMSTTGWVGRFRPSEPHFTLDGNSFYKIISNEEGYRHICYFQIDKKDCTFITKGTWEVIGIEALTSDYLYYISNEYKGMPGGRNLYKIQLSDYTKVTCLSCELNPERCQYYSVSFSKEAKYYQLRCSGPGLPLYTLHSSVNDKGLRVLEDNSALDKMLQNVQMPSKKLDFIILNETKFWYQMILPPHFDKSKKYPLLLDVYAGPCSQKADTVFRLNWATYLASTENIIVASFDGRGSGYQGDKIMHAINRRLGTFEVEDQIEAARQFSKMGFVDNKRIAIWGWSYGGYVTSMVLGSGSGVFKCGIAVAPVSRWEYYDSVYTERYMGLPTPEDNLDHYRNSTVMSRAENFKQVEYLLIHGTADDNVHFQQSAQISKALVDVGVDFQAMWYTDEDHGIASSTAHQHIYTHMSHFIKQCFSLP
Outline: as §1

[4] = Stability in simulated intestinal fluid; type: in vitro ADME; settings: 37° C.; for half-life at 2 μM: simulated intestinal fluid, pH 7.5, read-out: half-life (t1/2) in simulated intestinal fluid
Outline: as §1

[5] = system: RIN5F (Rat Insulinoma) cells; experiment: In vitro glucose-dependent insulin secretion (RIN5F cell assay); type: cell-based; settings: 16.7 mM glucose load, mean ± S.D., n = 3
Method: After trypsinization, RIN5F cells were seeded at a concentration of 0.2×10^6·cells per well, in 12 well plates.
The supernatant was collected and the insulin amount was measured by ultra sensitive Rat insulin ELISA kit (Crystal Chem, Ill.). The protein was estimated in the supernatant using Bicinchoninic Acid kit, according to the manufacturer's protocol (Sigma Aldrich, Mo.). The total insulin content obtained in Pico-gram (pg) was divided with the total protein (μg) in order to normalize for differences in cell density between wells.

[6] = Stability against liver microsomes; type: in vitro ADME, human; settings: for % degradation in 24 h when incubated with liver microsomes: 2 μM, 37° C.; for half-life at 2 μM: human, human liver microsomes, pH 7.8, 37° C., read-out: half-life (t1/2) with liver microsomes
Outline: as §1

[7] = Stability in human plasma; type: in vitro ADME; settings: for half-life (t1/2) in human plasma / % degradation in 24 h when incubated with human plasma: 2 μM, 37° C.
Outline: as §1

[8] = 1 nM test compound (fourth concentration column, between 100 nM and 10 μM) with saturated concentration of glucagon peptide
[9] = 1 nM test compound with saturated concentration of glucagon peptide
[10] = 10 nM test compound with saturated concentration of glucagon peptide
[11] = 100 nM test compound with saturated concentration of glucagon peptide
[12] = 10 μM test compound with saturated concentration of glucagon peptide

Structure (SMILES)	% degradation in 24 h when incubated with simulated gastric fluid ([1]; 2 μM) [%]	half-life at 2 μM [1] [min]	Human Glucagon receptor antagonistic activity, inhibition of cAMP production of Glucagon peptide [2, 8] [pmol/ml/μg prt]	Human Glucagon receptor antagonistic activity, inhibition of cAMP production of Glucagon peptide [2, 9] [pmol/ml/μg prt]	Human Glucagon receptor antagonistic activity, inhibition of cAMP production of Glucagon peptide [2, 10] [pmol/ml/μg prt]	Human Glucagon receptor antagonistic activity, inhibition of cAMP production of Glucagon peptide [2, 11] [pmol/ml/μg prt]	Human Glucagon receptor antagonistic activity, inhibition of cAMP production of Glucagon peptide [2, 12] [pmol/ml/μg prt]	% degradation in 24 h when incubated with DPP-IV enzyme [3] [%]	% degradation in 24 h when incubated with simulated intestinal fluid ([4]; 2 μM, pH 7.5) [%]	half-life at 2 μM [4] [min]	Insulin secretion ([5]; 0.1 nM test compd.) [pg/µg/h]	Insulin secretion ([5]; 1 nM test compd.) [pg/µg/h]	Insulin secretion ([5]; 10 nM test compd.) [pg/µg/h]	% degradation in 24 h when incubated with liver microsomes [6] [%]	half-life at 2 μM [6] [min]	half-life (t1/2) in human plasma [7]	% degradation in 24 h when incubated with human plasma [7] [%]	other results
CCc1cc(OC)ccc1-c1ccc(CC(NC(=O)[C@H](CC(=O)O)NC(=O)[C@H](CO)NC(=O)[C@@H](NC(=O)[C@H](Cc2ccccc2)NC(=O)[C@@H](NC(=O)CNC(=O)[C@H](CCC(N)=O)NC(=O)[C@H](C)NC(=O)[C@@H](N)Cc2c[nH]cn2)[C@@H](C)O)[C@@H](C)O)C(=O)NC(Cc2ccc(-c3ccccc3C)cc2)C(N)=O)cc1 (single isomer, unassigned) [compound 9]	100	30	8 ± 0.02	18 ± 0.07	16 ± 0.01	12 ± 0.03	6 ± 0.08	74	100	30	11.8 ± 0.50	14.9 ± 0.11	27.9 ± 0.31	100	30	(9) h	75	–
CCc1cc(OC)ccc1-c1ccc(CC(NC(=O)[C@H](CC(=O)O)NC(=O)[C@H](CO)NC(=O)[C@@H](NC(=O)[C@H](Cc2ccccc2)NC(=O)[C@@H](NC(=O)CNC(=O)[C@H](CCC(N)=O)NC(=O)[C@H](C)NC(=O)[C@@H](N)Cc2c[nH]cn2)[C@@H](C)O)[C@@H](C)O)C(=O)NC(Cc2ccc(-c3ccccc3C)nc2)C(N)=O)cc1 (single isomer, unassigned) [compound 10]	100	30	4 ± 0.01	15 ± 0.11	12 ± 0.13	8 ± 0.09	2 ± 0.08	70	100	30	12.7 ± 0.21	15.8 ± 0.33	29.3 ± 0.19	100	30	(9) h	71	–
CCc1cc(OC)ccc1-c1ccc(CC(NC(=O)[C@H](CC(=O)O)NC(=O)[C@H](CO)NC(=O)[C@@H](NC(=O)[C@H](Cc2ccccc2)NC(=O)[C@@H](NC(=O)CNC(=O)[C@H](CCC(N)=O)NC(=O)[C@H](C)NC(=O)[C@@H](N)Cc2c[nH]cn2)[C@@H](C)O)[C@@H](C)O)C(=O)NC(Cc2ccc(-c3ccccc3F)cc2)C(N)=O)cc1 (single isomer, unassigned) [compound 11]	100	30	2 ± 0.13	10 ± 0.03	8 ± 0.03	6 ± 0.22	0	86	100	30	13.1 ± 0.11	14.9 ± 0.17	28.8 ± 0.44	100	30	(9) h	70	–
CCc1cc(OC)ccc1-c1ccc(CC(NC(=O)[C@H](CC(=O)O)NC(=O)[C@H](CO)NC(=O)[C@@H](NC(=O)[C@H](Cc2ccccc2)NC(=O)[C@@H](NC(=O)CNC(=O)[C@H](CCC(N)=O)NC(=O)[C@H](C)NC(=O)[C@@H](N)Cc2c[nH]cn2)[C@@H](C)O)[C@@H](C)O)C(=O)NC(Cc2ccc(-c3ccccc3C(F)(F)F)cc2)C(N)=O)cc1 (single isomer, unassigned) [compound 12]	100	30	0	5 ± 0.09	3 ± 0.11	0	0	72	100	30	12.9 ± 0.14	15.8 ± 0.13	29.9 ± 0.15	100	30	(9) h	70	–
CCc1cc(OC)ccc1-c1ccc(CC(NC(=O)[C@H](CC(=O)O)NC(=O)[C@H](CO)NC(=O)[C@@H](NC(=O)C(C)(Cc2ccccc2F)NC(=O)[C@@H](NC(=O)CNC(=O)[C@H](CCC(N)=O)NC(=O)[C@H](CO)NC(=O)[C@@H](N)Cc2c[nH]cn2)[C@@H](C)O)[C@@H](C)O)C(=O)NC(Cc2ccc(-c3ccccc3C)cc2)C(N)=O)cc1 (single isomer, unassigned) [compound 21]	12	–	14 ± 0.02	19 ± 0.03	17 ± 0.08	15 ± 0.01	12 ± 0.11	76	55	–	12.3 ± 0.33	14.1 ± 0.36	28.0 ± 0.16	79	60	–	78	half-life (t1/2) in simulated gastric fluid ([1]; 2 μM): (8) h; half-life at 2 μM ([3]; DPP IV enzyme, pH 7.8, 37° C., read-out: half-life (t1/2) with DPP-IV enzyme): 540 min; half-life (t1/2) in simulated intestinal fluid ([4]; 2 μM, pH 7.5): (6) h; half-life at 2 μM ([7]; human, pooled human plasma, pH 7.8, 37° C., read-out: half-life (t1/2) in human plasma): 480 min
